Earlier results as cited in patent US6355677B1, “Adrenoleukodystrophy treatments and drug screening” (The Johns Hopkins University, priority 1998, dated 2002).

Assays:
[1] = in rats; cited from earlier work
[2] = active ingredient of Lorenzo oil; cited from earlier work

Row | SMILES | Blood-brain barrier passage [1] | Brain entry [2]
1 | O=C(O)Cc1ccccc1 [phenylacetate] | can cross the blood-brain barrier | –
2 | CCCCCCCC/C=C\CCCCCCCCCCCC(=O)O [erucic acid] | – | does not get into the brain
